Assay results from patent US20120076808A1, “COMBINED ANTIGEN AND DNA VACCINE FOR PREVENTING AND TREATING AUTOIMMUNE DISEASES” (CHINA AGRICULTURAL UNIVERSITY, priority 2010, published 2012).

Assays:
JAWS II cells = assay: Endocytosis inhibitor pre-treatment of JAWS II cells fed pOVA323+OVA323, CD40 staining; assay type: cell-based, mouse; details: pre-treatment before pOVA323+OVA323
Procedure: FIG. 24. DCs co-take up DNA and protein immunogens via clathrin- and caveolae-mediated endocytosis. A) JAWS II cells were pre-treated with PBS, MDC (50 μM), or filipin (10 μg/ml) for 30 min at 37° C. and then fed Cy5-pOVA323+FITC-OVA323 or Cy5-pVAX+FITC-OVA323 for 24 h. The cells were stained with anti-CD40-PE and analyzed by flow cytometry. Shown is CD40 staining of Cy5/FITC double-positive cells (gated). B) A summary of the experimental results are shown.
FIG. 30. Effect of amiloride on the expression of CD40 in JAWS II cells. JAWS II cells were pre-treated with amiloride (5 mM) for 10 min at 37° C. and then co-treated with Cy5-pOVA323+FITC-OVA323 or Cy5-pVAX+FITC-OVA323 for 24 h. The cells were stained with anti-CD40-PE and analyzed by flow cytometry.
The JAWS II mouse DC line was purchased from the American Type Culture Collection (ATCC, Manassas, Va., USA) and maintained in complete growth medium containing minimum essential medium (MEM) alpha with ribonucleosides, deoxyribonucleosides, 4 mM L-glutamine, and 1 mM sodium pyruvate (Invitrogen Inc., Carlsbad, Calif., USA), and supplemented with 20% fetal bovine serum (ATCC) and 5 ng/ml murine recombinant GM-CSF (R&D Systems, Inc., Minneapolis, Minn., USA). The cells were incubated at 37° C. with 5% CO2 and treated with different antigens (10 μg/ml) such as pVAX, pOVA, OVA, pOVA323 and OVA323 for 24 h. […]

[1] = test system: BALB/c mice with OVA-induced inflammatory bronchitis; assay: OVA-induced inflammatory bronchitis, adoptive transfer of DCregs; assay type: in vivo; details: DCs pretreated with filipin
Procedure: FIG. 28. Co-immunization-induced DCregs ameliorate inflammatory bronchitis. A) Experimental design: Balb/c mice were injected with 0.1 ml of 1 mg/ml OVA/alum complexes in PBS on days 0 and 7 by i.p. and subsequently challenged with 100 μg OVA intra-tracheally on days 14, 16 and 18 to establish the “model”. Control mice were received with PBS intra-tracheally on days 14, 16 and 18 and designated as the “shame” control. On day 21, 5×10^5 of CD11c+ cells from syngeneic donor mice were transferred into model mice once daily for 3 consecutive days by i.v. (n=3 per group). Prior to the transfer, donor CD11c+ cells purified from spleen of naïve mice were pre-treated with or without filipin and subsequently co-treated with pOVA+OVA or pVAX+OVA for 24 h. On day 14 after the final transfer, serum samples were taken to analyze the levels of IgE or cytokine productions. Sections of lung tissues were made to evaluate disease severity. B) the level of antigen specific IgE was analyzed by ELISA following adoptive transfer of indicated DCs. […] D) Lung sections were examined by H&E staining and recorded under a light microscope at ×100 and ×200 magnification. […]
Lung or ovary were fixed in 4% paraformaldehyde or Bouin's solution and embedded in paraffin blocks. […] Histopathology of lung or ovary was evaluated under a light microscope. […]

Structure (SMILES): CCCCC[C@@H](O)[C@H]1C(=O)O[C@H](C)[C@@H](O)/C=C/C=C/C=C/C=C/C=C(\C)[C@@H](O)C[C@H](O)C[C@H](O)C[C@H](O)C[C@H](O)C[C@H](O)C[C@@H]1O [filipin]
- effect on CD40low phenotype / CD40 expression (JAWS II cells): could prevent the CD40^1′ phenotype, filipin was more effective than MDC
- anti-inflammatory effect of pOVA+OVA treated DCs after inhibitor pre-treatment [1]: absent
